The values that follow come from ChEMBL document CHEMBL4396937, “Synthesis of new triazole fused imidazo[2,1-b]thiazole hybrids with emphasis on Staphylococcus aureus virulence factors” (Bioorg Med Chem Lett, 2019).

Common to all, as to format: functional
The subject of assay [1] is Candida albicans. As to the kind of experiment: Fungicidal activity against Candida albicans MTCC 3017 assessed as reduction in fungal survival incubated for 24 hrs followed by transfer of microbial suspension to agar plates and measured at 24 hrs post transfer by agar well diffusion method. To be noted: MTCC 3017, 24 h. (In general: A growth-free zone around the sample is the usual read-out of agar diffusion tests.)

Assay [2] relates to Staphylococcus aureus. Kind of assay: Antibacterial activity against Staphylococcus aureus MTCC 96 assessed as reduction in bacterial growth incubated for 24 hrs by agar well diffusion method. Conditions: MTCC 96, 24 h.
Assay [3] concerns Pseudomonas aeruginosa. Kind of assay: Antibacterial activity against Pseudomonas aeruginosa MTCC 2453 assessed as reduction in bacterial growth incubated for 24 hrs by agar well diffusion method. To be noted: MTCC 2453, 24 h.
Assay [4] concerns Staphylococcus aureus. As to the kind of experiment: Bactericidal activity against Staphylococcus aureus MTCC 96 assessed as reduction in bacterial survival incubated for 24 hrs followed by transfer of microbial suspension to agar plates and measured at 24 hrs post transfer by agar well diffusion method. Conditions: MTCC 96, 24 h.
Assay [5] relates to Pseudomonas aeruginosa. Kind of assay: Bactericidal activity against Pseudomonas aeruginosa MTCC 2453 assessed as reduction in bacterial survival incubated for 24 hrs followed by transfer of microbial suspension to agar plates and measured at 24 hrs post transfer by agar well diffusion method. Conditions: MTCC 2453, 24 h.
Assay [6] has as its system Raoultella planticola. Kind of assay: Bactericidal activity against Klebsiella planticola MTCC 530 assessed as reduction in bacterial survival incubated for 24 hrs followed by transfer of microbial suspension to agar plates and measured at 24 hrs post transfer by agar well diffusion method. Conditions: MTCC 530, 24 h.
Assay [7] relates to Micrococcus luteus. Kind of assay: Bactericidal activity against Micrococcus luteus MTCC 2470 assessed as reduction in bacterial survival incubated for 24 hrs followed by transfer of microbial suspension to agar plates and measured at 24 hrs post transfer by agar well diffusion method. Conditions: MTCC 2470, 24 h.
Assay [8] relates to Escherichia coli. As to the kind of experiment: Bactericidal activity against Escherichia coli MTCC 739 assessed as reduction in bacterial survival incubated for 24 hrs followed by transfer of microbial suspension to agar plates and measured at 24 hrs post transfer by agar well diffusion method. Conditions: MTCC 739, 24 h.
Assay [9] concerns Bacillus subtilis. As to the kind of experiment: Antibacterial activity against Bacillus subtilis MTCC 121 assessed as reduction in bacterial growth incubated for 24 hrs by agar well diffusion method. To be noted: MTCC 121, 24 h.
In assay [10] the test system is Candida albicans. Kind of assay: Antifungal activity against Candida albicans MTCC 3017 assessed as reduction in fungal growth incubated for 24 hrs by agar well diffusion method. To be noted: MTCC 3017, 24 h.
Assay [11] concerns Micrococcus luteus. As to the kind of experiment: Antibacterial activity against Micrococcus luteus MTCC 2470 assessed as reduction in bacterial growth incubated for 24 hrs by agar well diffusion method. Conditions: MTCC 2470, 24 h.
Assay [12] has as its system Raoultella planticola. Kind of assay: Antibacterial activity against Klebsiella planticola MTCC 530 assessed as reduction in bacterial growth incubated for 24 hrs by agar well diffusion method. Conditions: MTCC 530, 24 h.
The test system of assay [13] is Staphylococcus aureus. As to the kind of experiment: Antibacterial activity against Staphylococcus aureus MLS-16 MTCC 2940 assessed as reduction in bacterial growth incubated for 24 hrs by agar well diffusion method. To be noted: MLS-16 MTCC 2940, 24 h.
The test system of assay [14] is Escherichia coli. Kind of assay: Antibacterial activity against Escherichia coli MTCC 739 assessed as reduction in bacterial growth incubated for 24 hrs by agar well diffusion method. Conditions: MTCC 739, 24 h.
In assay [15] the test system is Bacillus subtilis. Kind of assay: Bactericidal activity against Bacillus subtilis MTCC 121 assessed as reduction in bacterial survival incubated for 24 hrs followed by transfer of microbial suspension to agar plates and measured at 24 hrs post transfer by agar well diffusion method. To be noted: MTCC 121, 24 h.
Assay [16] relates to Staphylococcus aureus. Kind of assay: Bactericidal activity against Staphylococcus aureus MLS-16 MTCC 2940 assessed as reduction in bacterial survival incubated for 24 hrs followed by transfer of microbial suspension to agar plates and measured at 24 hrs post transfer by agar well diffusion method. To be noted: MLS-16 MTCC 2940, 24 h.

In brackets after ≈: the same amount, converted by molar mass.

A word on the MFC: it is the smallest concentration meeting the test's criterion for killing the fungus. What is called MIC is the lowest concentration that inhibits growth of the organism. The term MBC denotes the lowest tested concentration that kills the bacteria rather than only halting them. `COc1ccc(-c2nc3sccn3c2C(=O)c2cn(-c3ccc(Cl)cc3)nn2)cc1`: in the assay with Candida albicans [1], the minimum fungicidal concentration (MFC) was determined as 31.2 µg/mL (≈ 71.6 µM). Besides, the minimum inhibitory concentration (MIC) with Staphylococcus aureus [2] was 3.9 µg/mL (≈ 8.95 µM); with Pseudomonas aeruginosa [3], greater than 125 µg/mL; with Bacillus subtilis [9], 3.9 µg/mL (≈ 8.95 µM); in the assay on Candida albicans [10], 15.6 µg/mL (≈ 35.8 µM); in the assay on Micrococcus luteus [11], 3.9 µg/mL (≈ 8.95 µM); with Raoultella planticola [12], greater than 125 µg/mL. The MIC in the assay on Staphylococcus aureus [13] is 7.8 µg/mL (≈ 17.9 µM); in the assay with Escherichia coli [14] it was greater than 125 µg/mL. Further, the minimal bactericidal concentration (MBC) is 7.8 µg/mL (≈ 17.9 µM) in the assay with Staphylococcus aureus [4]; greater than 125 µg/mL in the assay with Pseudomonas aeruginosa [5]; greater than 125 µg/mL in the assay on Raoultella planticola [6]; 7.8 µg/mL (≈ 17.9 µM) in the assay with Micrococcus luteus [7]; greater than 125 µg/mL in the assay with Escherichia coli [8]; 7.8 µg/mL (≈ 17.9 µM) in the assay on Bacillus subtilis [15]. The MBC with Staphylococcus aureus [16] was found to be 15.6 µg/mL (≈ 35.8 µM).

Regarding `O=C(c1cn(-c2ccc(F)cc2)nn1)c1c(-c2ccccc2)nc2sccn12`, in the assay on Candida albicans [1], the minimal fungicidal concentration (MFC) is 31.2 µg/mL (≈ 80.1 µM). In addition, the MIC was greater than 125 µg/mL in the assay on Staphylococcus aureus [2]; greater than 125 µg/mL in the assay with Pseudomonas aeruginosa [3]; 7.8 µg/mL (≈ 20 µM) in the assay with Bacillus subtilis [9]; 15.6 µg/mL (≈ 40.1 µM) with Candida albicans [10]; greater than 125 µg/mL in the assay on Micrococcus luteus [11]; greater than 125 µg/mL in the assay on Raoultella planticola [12]. Further, the MIC with Staphylococcus aureus [13] and with Escherichia coli [14] was greater than 125 µg/mL each time. The MBC is greater than 125 µg/mL in the assay on Staphylococcus aureus [4]; greater than 125 µg/mL with Pseudomonas aeruginosa [5]; greater than 125 µg/mL with Raoultella planticola [6]; greater than 125 µg/mL with Micrococcus luteus [7]; greater than 125 µg/mL in the assay on Escherichia coli [8]; 15.6 µg/mL (≈ 40.1 µM) in the assay with Bacillus subtilis [15]. Besides, in the assay with Staphylococcus aureus [16], the MBC is greater than 125 µg/mL.

As for `COc1ccc(-c2nc3sccn3c2C(=O)c2cn(-c3ccc(F)cc3)nn2)cc1`, the MFC in the assay with Candida albicans [1] was 31.2 µg/mL (≈ 74.4 µM). Besides, the MIC in the assay with Staphylococcus aureus [2] was 3.9 µg/mL (≈ 9.3 µM); in the assay with Pseudomonas aeruginosa [3] it was greater than 125 µg/mL; in the assay with Bacillus subtilis [9] it was 3.9 µg/mL (≈ 9.3 µM); in the assay with Candida albicans [10], 15.6 µg/mL (≈ 37.2 µM); in the assay with Micrococcus luteus [11], 3.9 µg/mL (≈ 9.3 µM); in the assay on Raoultella planticola [12] it was greater than 125 µg/mL. Further, the minimum inhibitory concentration (MIC) was 7.8 µg/mL (≈ 18.6 µM) with Staphylococcus aureus [13] and greater than 125 µg/mL with Escherichia coli [14]. The MBC in the assay with Staphylococcus aureus [4] was 7.8 µg/mL (≈ 18.6 µM); with Pseudomonas aeruginosa [5], greater than 125 µg/mL; in the assay on Raoultella planticola [6], greater than 125 µg/mL; in the assay on Micrococcus luteus [7], 7.8 µg/mL (≈ 18.6 µM); in the assay with Escherichia coli [8], greater than 125 µg/mL; with Bacillus subtilis [15] it was 7.8 µg/mL (≈ 18.6 µM). The MBC in the assay with Staphylococcus aureus [16] amounted to 15.6 µg/mL (≈ 37.2 µM).

Turning to `O=C(c1cn(-c2ccc(C(F)(F)F)cc2)nn1)c1c(-c2ccccc2)nc2sccn12`, the minimum fungicidal concentration (MFC) in the assay on Candida albicans [1] worked out at 31.2 µg/mL (≈ 71 µM). Also, the MIC is 3.9 µg/mL (≈ 8.88 µM) in the assay on Staphylococcus aureus [2]; greater than 125 µg/mL in the assay on Pseudomonas aeruginosa [3]; 3.9 µg/mL (≈ 8.88 µM) in the assay with Bacillus subtilis [9]; 15.6 µg/mL (≈ 35.5 µM) with Candida albicans [10]; 3.9 µg/mL (≈ 8.88 µM) in the assay with Micrococcus luteus [11]; greater than 125 µg/mL with Raoultella planticola [12]. For the same compound, the MIC is 7.8 µg/mL (≈ 17.8 µM) with Staphylococcus aureus [13] and greater than 125 µg/mL with Escherichia coli [14]. Also, the MBC in the assay on Staphylococcus aureus [4] is 7.8 µg/mL (≈ 17.8 µM); in the assay on Pseudomonas aeruginosa [5], greater than 125 µg/mL; in the assay with Raoultella planticola [6], greater than 125 µg/mL; with Micrococcus luteus [7], 7.8 µg/mL (≈ 17.8 µM); with Escherichia coli [8], greater than 125 µg/mL; in the assay on Bacillus subtilis [15], 7.8 µg/mL (≈ 17.8 µM). Moreover, the MBC in the assay with Staphylococcus aureus [16] was 15.6 µg/mL (≈ 35.5 µM).

On to `COc1ccc(-c2nc3sccn3c2C(=O)c2cn(-c3cc(OC)c(OC)c(OC)c3)nn2)cc1`, for which the MFC with Candida albicans [1] is 15.6 µg/mL (≈ 31.7 µM). Further, the MIC in the assay on Staphylococcus aureus [2] was 15.6 µg/mL (≈ 31.7 µM); with Pseudomonas aeruginosa [3], greater than 125 µg/mL; in the assay with Bacillus subtilis [9], 15.6 µg/mL (≈ 31.7 µM); in the assay on Candida albicans [10] it was 7.8 µg/mL (≈ 15.9 µM); in the assay on Micrococcus luteus [11], 15.6 µg/mL (≈ 31.7 µM); in the assay with Raoultella planticola [12] it was greater than 125 µg/mL. Moreover, the MIC is 7.8 µg/mL (≈ 15.9 µM) in the assay on Staphylococcus aureus [13] and greater than 125 µg/mL with Escherichia coli [14]. Besides, the MBC was 31.2 µg/mL (≈ 63.5 µM) with Staphylococcus aureus [4]; greater than 125 µg/mL in the assay with Pseudomonas aeruginosa [5]; greater than 125 µg/mL in the assay with Raoultella planticola [6]; 31.2 µg/mL (≈ 63.5 µM) in the assay on Micrococcus luteus [7]; greater than 125 µg/mL in the assay on Escherichia coli [8]; 31.2 µg/mL (≈ 63.5 µM) in the assay on Bacillus subtilis [15]. Besides, in the assay with Staphylococcus aureus [16], the MBC was 15.6 µg/mL (≈ 31.7 µM).
